The term Ki denotes the dissociation constant of the complex between target and ligand, obtained from inhibition or displacement. As a reminder, the EC50 is the concentration giving half of the maximal effect. In general, Kb refers to the affinity of an antagonist, worked out from how it opposes an agonist. Read a high Kb as a less potent antagonist.

Like-named read-outs stand apart in the source and are kept apart here. Positions of bridges follow the written chain, without caps; N, C: chain ends. Non-standard residues stand in square brackets, D forms with d. Residues, ends and D or L forms follow the SMILES beside them. No end group written: not given here. *: point of attachment. X1 = CC(=O)N[C@@H](Cc1ccccc1)C(=O)N[C@H]1Cc2ccc(cc2)OC/C=C/COc2ccc(cc2)C[C@@H](C(=O)*)NC1=O; AllylGly = C=CC[C@H](N)C(=O)O

The source of these data is paper PMC11243530 (Molecules, 2024).

Series [1] has as its target T1, cloned rat KOR (Rattus norvegicus, UniProt P34975).
T1 construct: expressed in transfected cells
The following applies: read-out: KOR Ki ± SEM; cited from earlier work.

Series [2] has as its system KOR. The following applies: following a single injection; ref [4]; cited from earlier work. The text has this: Recently, antagonists of the kappa opioid receptor (KOR) have attracted significant attention due to their potential use in treating various central nervous system (CNS) disorders, especially mood disorders and substance abuse. […] Consequently, there has been a growing interest in KOR antagonists, including peptide KOR antagonists, with m ...

The test system of series [3] is KOR. Particulars: [^35S]GTPγS binding assay; known comparator; cited from earlier work. (Binding of GTPγS marks nucleotide exchange on a G protein.)
The subject of another series is proteases. The following applies: linear peptide; general statement; cited from earlier work.
Series [4] has as its system stress-induced reinstatement of cocaine-seeking behavior. Particulars: mouse conditioned place preference; i.c.v.; ref [7]; cited from earlier work.
Series [5] concerns KOR (antagonism of U50,488 antinociception). Particulars: mouse 55 °C warm-water tail withdrawal; i.c.v.; ref [7]; cited from earlier work.
A further series concerns the target ẟ opioid receptor (DOR). Particulars: ref [6]; cited from earlier work.
Series [6] concerns KOR. Particulars: ref [6]; cited from earlier work.
The target in series [7] is KOR. Set-up: method as in PMID 34162205. Particulars: ref [23]; cited from earlier work.
For series [8], the system named is KOR. The arrangement: method as in PMID 34162205. Particulars: ref [23]; read-out: KOR agonist potency EC50; cited from earlier work.
The subject of series [9] is KOR. The series can be described thus: Dynorphin-stimulated [^35S]GTPγS assay, KOR antagonism (Schild analysis). The format is biochemical. Particulars: for agonist activity / type of antagonism at KOR: [^35S]GTPγS binding assay.
For series [10], the target named is T1, cloned rat KOR. The experiment in a line: Radioligand binding, competitive inhibition of [^3H]diprenorphine, KOR.
The target in a further series is T2, cloned rat MOR (Rattus norvegicus, UniProt P33535).
T2 construct: expressed in transfected cells
The experiment in a line: Radioligand binding, competitive inhibition of [^3H]DAMGO, MOR.

Consider “3: monocyclic arodyn analog, RCM cyclization between Tyr(All) residues in positions 2 and 3 (FYYRLRRARPK) [Peptide 3]”, for which, in the series with cloned rat KOR [1], the Ki is 55.4 ± 4.1 nM.

On to `CC(C)[C@@H](CN1CC[C@@](C)(c2cccc(O)c2)[C@@H](C)C1)NC(=O)[C@H]1Cc2ccc(O)cc2CN1` [JDTic], for which the duration of action result with KOR [2] is on record as “exhibited prolonged effects, with their action extending from days to weeks”.

Turning to “Ac[Phe^1,2,3,Arg^4,D-Ala^8]dynorphin A-(1–11)-NH2 [arodyn]”, the “agonist activity / type of antagonism at KOR” value in the series with KOR [3] was “did not exhibit appreciable agonist activity and functioned as a potent competitive KOR antagonist”. In the series with proteases, the susceptibility to proteolysis result is “susceptible to rapid breakdown by proteases”. The “reinstatement of cocaine-seeking behavior induced by stress” value in series [4] is recorded as “prevented the reinstatement of cocaine-seeking behavior induced by stress”. Moreover, the “antagonism of antinociception produced by U50,488” value in series [5] is listed as “antagonized antinociception produced by the KOR-selective agonist U50,488”. The Ki at ẟ opioid receptor (DOR) is more than 5000 nM. Further, the “KOR antagonism in vitro” value in the series on KOR [6] is “potent KOR antagonist in vitro”.

In the case of “dynorphin A-(1–13)-NH2: KOR agonist reference peptide (YGGFLRRIRPKLK-NH2; UniProt P01213 207-219, looked up, fragment)”, the Ki on KOR [7] was 0.3 nM. Further, the concentration giving a half-maximal response (EC50) in the series on KOR [8] is 2.8 nM.

With `CC(=O)N[C@@H](Cc1ccccc1)C(=O)N[C@H]1Cc2ccc(cc2)OC/C=C/COc2ccc(cc2)C[C@@H](C(=O)N[C@@H](CCCNC(=N)N)C(=O)N[C@H]2CC=CC[C@@H](C(=O)N[C@@H](CCCNC(=N)N)C(=O)N3CCC[C@H]3C(=O)N[C@@H](CCCCN)C(N)=O)NC(=O)[C@H](CCCNC(=N)N)NC(=O)[C@H](CCCNC(=N)N)NC2=O)NC1=O` [Peptide 4] (X1-R[AllylGly]RR[AllylGly]RPK-NH2; staple 2-5), the “agonist activity / type of antagonism at KOR” value was “did not exhibit appreciable agonist activity and functioned as a potent competitive KOR antagonist” in the series with KOR [9]; “exhibits potent KOR antagonism” with KOR [9] (listed as bicyclic analog). Moreover, in the series with KOR [9] (dynorphin A-(1–13)-NH2-stimulated [^35S]GTPγS binding, KOR membranes, peptidase inhibitors present, four concentrations 1–1000 nM of 4, Schild analysis, mean values from 4 independent experiments), the Kb was 0.9 nM. Besides, the “KOR affinity and KOR antagonism relative to monocyclic analogs” value with KOR [9] (dynorphin-stimulated [^35S]GTPγS assay and KOR binding) is “comparable to monocyclic analogs”. The Ki is 26.4 ± 5.9 nM at cloned rat KOR [10] and 2570 ± 500 nM on cloned rat MOR. The “KOR selectivity over MOR” value on cloned rat KOR [10] (MOR Ki / KOR Ki) amounted to 97 fold. In addition, on cloned rat KOR [10] (MOR Ki / KOR Ki), the “Ki Ratio (MOR/KOR)” value is listed as 97.
